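48-hour exposure; five concentrations; linearly interpolated endpoints. Abbreviation: GI50, concentration required for 50% inhibition of growth. TGI marks complete inhibition of growth.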
Assays:
Assay in all cases: NCI tumour cell line growth inhibition, 48 h
[1] = tested on: OVCAR-8 ovarian
[2] = tested on: SN12C renal
[3] = tested on: OVCAR-5 ovarian
[4] = tested on: U251 CNS
[5] = tested on: UACC-257 melanoma
[6] = tested on: EKVX NSCLC
[7] = tested on: OVCAR-4 ovarian
[8] = tested on: HT29 colon
[9] = tested on: HCT-15 colon
[10] = tested on: SK-MEL-5 melanoma

Compound | TGI [1] [µM] | TGI [2] [µM] | TGI [3] [µM] | TGI [4] [µM] | TGI [5] [µM] | TGI [6] [µM] | TGI [7] [µM] | TGI [8] [µM] | TGI [9] [µM] | TGI [10] [µM] | GI50 [2] [nM] | GI50 [3] [nM] | GI50 [10] [nM] | GI50 [5] [nM] | GI50 [7] [nM] | GI50 [9] [nM] | GI50 [6] [nM]
C=C1CC23CCC4C(C)(C(=O)O)CCCC4(C)C2CCC1C3 (stereo unspecified) | > 100 | > 100 | > 100 | > 100 | > 100 | 75.5 | > 100 | > 100 | > 100 | – | – | – | – | – | – | – | –
COC1/C=C\OC2(C)Oc3c(C)c(O)c4c(O)c(c(/C=N\OCCCc5ccccc5)c(O)c4c3C2=O)NC(=O)/C(C)=C\C=C/C(C)C(O)C(C)C(O)C(C)C(OC(C)=O)C1C (stereo unspecified) | 17.8 | 7.66 | 20.4 | 16 | 18.6 | 17.7 | 12.6 | 11.3 | 11 | 3.55 | – | – | – | – | – | – | –
CC(C)(C)C1(c2ccc(C3(c4ccccc4)Oc4ccccc4S3)[nH]2)Oc2ccccc2S1 (stereo unspecified) | > 100 | > 100 | > 100 | > 100 | > 100 | > 100 | – | > 100 | > 100 | > 100 | – | – | – | – | – | – | –
O=[N+]([O-])c1ccc(/C=N\Nc2ccc([N+](=O)[O-])cn2)cc1 | > 100 | > 100 | > 100 | > 100 | > 100 | > 100 | > 100 | > 100 | > 100 | > 100 | – | – | – | – | – | – | –
C[C@H](C(=O)N[C@@H](Cc1ccc(-c2ccccc2)cc1)C(=O)NC1CC(C)(C)N(C)C(C)(C)C1)c1ccc(-c2ccccc2)c(F)c1 | – | 2.77 | 3 | – | 3.8 | – | 2.84 | – | 2.94 | 2.94 | 1310 | 1460 | 1590 | 2120 | 818 | 1530 | –
O=S(=O)(O)c1cc(N=Nc2cc(S(=O)(=O)O)c3ccccc3c2O)ccc1/C=C/c1ccc(N=Nc2cc(S(=O)(=O)O)c3ccccc3c2O)cc1S(=O)(=O)O | > 1000 | > 1000 | 472 | > 1000 | > 1000 | > 632 | > 1000 | > 740 | > 727 | 239 | – | – | – | – | > 807000 | 186000 | –
CC(C)=CCc1c(O)ccc2c1OC1c3ccc(O)c(CC=C(C)C)c3OCC21 (stereo unspecified) | 52.6 | 30.3 | 27.1 | 21.3 | 29 | 26.8 | 23.6 | > 61.9 | 18.1 | 17.8 | – | – | – | – | – | – | –
C[N+]1(C)CCOC(O)(c2ccccc2)C1 (stereo unspecified) | > 100 | > 100 | > 100 | > 100 | > 100 | > 100 | > 100 | > 100 | > 100 | > 100 | – | – | – | – | – | – | –
C=C(C)C1CC2=C(O1)C(=O)c1ccccc1C2=O (stereo unspecified) | 35.6 | 43.5 | – | 30.2 | 26.2 | 60.3 | 24 | 38.4 | 33.2 | 28.1 | – | – | – | – | – | – | –
C=C(C)[C@@H]1CC[C@]2(C(=O)Nc3ccccn3)CC[C@]3(C)[C@H](CC[C@@H]4[C@@]5(C)CCCNC(C)(C)[C@@H]5CC[C@]43C)[C@@H]12 | – | 2.92 | 3.89 | – | – | 2.53 | 2.99 | – | 3.09 | – | 1570 | 1920 | – | – | 1440 | 1610 | 1060
C=C1C(=O)CCC1C(=O)O (stereo unspecified) | > 100 | > 100 | > 100 | > 100 | > 100 | > 100 | > 100 | > 100 | > 100 | > 100 | – | – | – | – | – | – | –
O=Nc1ccc(O)c2ncccc12 | > 34.1 | 25.2 | 32.5 | 14.5 | 19.4 | 5.8 | 24.1 | 34.6 | 12.9 | 19.7 | – | – | – | – | – | – | –
C/C1=N\NC(=O)c2ccccc2C(=O)N/N=C(\C)c2cccc1n2.O=[N+]([O-])[O-].[Zn+2] | > 100 | > 100 | > 100 | > 100 | > 100 | > 100 | > 100 | > 100 | > 100 | > 100 | – | – | – | – | – | – | –
Nc1cc(S(=O)(=O)O)cc2cc(S(=O)(=O)O)c(N=Nc3ccc(-c4ccc(N=Nc5c(S(=O)(=O)O)cc6cc(S(=O)(=O)O)cc(N)c6c5O)cc4)cc3)c(O)c12 | > 100 | > 100 | > 100 | > 100 | > 100 | > 100 | > 100 | > 100 | > 100 | > 100 | – | – | – | – | – | – | –
